ChEMBL document CHEMBL1154930, “N1-Heterocyclic pyrimidinediones as non-nucleoside inhibitors of HIV-1 reverse transcriptase” (Bioorg Med Chem Lett, 2010)

System: Human immunodeficiency virus 1
Assay: Antiviral activity against wild type HIV1 infected in human MT2 cells
Format: functional, organism-based
Conditions: Human immunodeficiency virus 1, MT2

Row | Compound | EC50 [nM]
1 | Cc1cc(C#N)cc(C(=O)c2c(C(C)C)c(=O)[nH]c(=O)n2Cc2cc(N)nc(F)c2)c1 | 3.4
2 | Cc1cc(C#N)cc(C(=O)c2c(C(C)C)c(=O)[nH]c(=O)n2Cc2cc(N)nc(F)c2F)c1 | 4.5
3 | Cc1cc(C#N)cc(C(=O)c2c(C(C)C)c(=O)[nH]c(=O)n2Cc2cc(F)nc(F)c2)c1 | 12.4
4 | Cc1cc(C#N)cc(C(=O)c2c(C(C)C)c(=O)[nH]c(=O)n2Cc2ccnc(F)c2)c1 | 6.2
5 | Cc1cc(C#N)cc(C)c1Oc1nc(Nc2ccc(C#N)cc2)nc(N)c1Br [ETRAVIRINE] | 1.6

System: Human immunodeficiency virus 1
Assay: Antiviral activity against HIV1 harboring reverse transcriptase Y181C mutant infected in human MT2 cells
Format: functional, organism-based
Conditions: Human immunodeficiency virus 1, MT2

Row | Compound | EC50 [nM]
6 | Cc1cc(C#N)cc(C(=O)c2c(C(C)C)c(=O)[nH]c(=O)n2Cc2cc(N)nc(F)c2)c1 | 6.7
7 | Cc1cc(C#N)cc(C(=O)c2c(C(C)C)c(=O)[nH]c(=O)n2Cc2cc(N)nc(F)c2F)c1 | 8.2
8 | Cc1cc(C#N)cc(C(=O)c2c(C(C)C)c(=O)[nH]c(=O)n2Cc2cc(F)nc(F)c2)c1 | 12
9 | Cc1cc(C#N)cc(C(=O)c2c(C(C)C)c(=O)[nH]c(=O)n2Cc2ccnc(F)c2)c1 | 16
10 | O=C1Nc2ccc(Cl)cc2[C@@](C#CC2CC2)(C(F)(F)F)O1 [EFAVIRENZ] | 2.6
11 | Cc1cc(C#N)cc(C)c1Oc1nc(Nc2ccc(C#N)cc2)nc(N)c1Br [ETRAVIRINE] | 2.6

System: Human immunodeficiency virus 1
Assay: Antiviral activity against NNRTI-resistant HIV1 harboring reverse transcriptase K103N mutant infected in human MT2 cells
Format: functional, organism-based
Conditions: Human immunodeficiency virus 1, MT2

Row | Compound | EC50 [nM]
12 | Cc1cc(C#N)cc(C(=O)c2c(C(C)C)c(=O)[nH]c(=O)n2Cc2cc(N)nc(F)c2)c1 | 1.6
13 | Cc1cc(C#N)cc(C(=O)c2c(C(C)C)c(=O)[nH]c(=O)n2Cc2cc(N)nc(F)c2F)c1 | 7.3
14 | Cc1cc(C#N)cc(C(=O)c2c(C(C)C)c(=O)[nH]c(=O)n2Cc2cc(F)nc(F)c2)c1 | 1.9
15 | Cc1cc(C#N)cc(C(=O)c2c(C(C)C)c(=O)[nH]c(=O)n2Cc2ccnc(F)c2)c1 | 2.4
16 | O=C1Nc2ccc(Cl)cc2[C@@](C#CC2CC2)(C(F)(F)F)O1 [EFAVIRENZ] | 35
17 | Cc1cc(C#N)cc(C)c1Oc1nc(Nc2ccc(C#N)cc2)nc(N)c1Br [ETRAVIRINE] | 0.9

Molecular target: Albumin (Homo sapiens, UniProt P02768)
Sequence (P02768 whole entry): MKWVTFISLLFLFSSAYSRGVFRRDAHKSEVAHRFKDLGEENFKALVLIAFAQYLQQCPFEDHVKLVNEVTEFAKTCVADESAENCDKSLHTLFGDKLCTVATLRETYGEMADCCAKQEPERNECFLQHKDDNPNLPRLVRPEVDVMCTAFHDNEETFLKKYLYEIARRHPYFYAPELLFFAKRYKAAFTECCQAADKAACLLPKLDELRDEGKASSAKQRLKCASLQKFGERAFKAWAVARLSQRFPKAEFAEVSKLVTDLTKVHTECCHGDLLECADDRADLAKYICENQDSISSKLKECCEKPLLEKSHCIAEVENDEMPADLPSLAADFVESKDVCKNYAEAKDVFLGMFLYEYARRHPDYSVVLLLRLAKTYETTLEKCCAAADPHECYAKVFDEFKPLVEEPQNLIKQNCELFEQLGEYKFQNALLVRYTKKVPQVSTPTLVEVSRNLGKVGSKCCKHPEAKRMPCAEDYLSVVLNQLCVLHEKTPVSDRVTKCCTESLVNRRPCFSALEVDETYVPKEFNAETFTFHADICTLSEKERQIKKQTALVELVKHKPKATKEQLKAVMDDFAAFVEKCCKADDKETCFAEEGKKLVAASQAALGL
Assay: Binding affinity to human serum albumin
Format: ADME
Conditions: read-out: PB (converted)

Row | Compound | fraction unbound
18 | Cc1cc(C#N)cc(C(=O)c2c(C(C)C)c(=O)[nH]c(=O)n2Cc2cc(N)nc(F)c2)c1 | 0.064
19 | Cc1cc(C#N)cc(C(=O)c2c(C(C)C)c(=O)[nH]c(=O)n2Cc2cc(N)nc(F)c2F)c1 | 0.067
20 | Cc1cc(C#N)cc(C(=O)c2c(C(C)C)c(=O)[nH]c(=O)n2Cc2cc(F)nc(F)c2)c1 | 0.058
21 | Cc1cc(C#N)cc(C(=O)c2c(C(C)C)c(=O)[nH]c(=O)n2Cc2ccnc(F)c2)c1 | 0.123

System: not listed separately
Assay: Half life in human microsomes
Format: ADME, Microsome
Conditions: not given

Row | Compound | half-life [min] | t1/2
22 | Cc1cc(C#N)cc(C(=O)c2c(C(C)C)c(=O)[nH]c(=O)n2Cc2cc(N)nc(F)c2)c1 | 45 | –
23 | Cc1cc(C#N)cc(C(=O)c2c(C(C)C)c(=O)[nH]c(=O)n2Cc2cc(N)nc(F)c2F)c1 | 51 | –
24 | Cc1cc(C#N)cc(C(=O)c2c(C(C)C)c(=O)[nH]c(=O)n2Cc2cc(F)nc(F)c2)c1 | – | Stable
25 | Cc1cc(C#N)cc(C(=O)c2c(C(C)C)c(=O)[nH]c(=O)n2Cc2ccnc(F)c2)c1 | 281 | –
26 | O=C1Nc2ccc(Cl)cc2[C@@](C#CC2CC2)(C(F)(F)F)O1 [EFAVIRENZ] | 98 | –
27 | Cc1cc(C#N)cc(C)c1Oc1nc(Nc2ccc(C#N)cc2)nc(N)c1Br [ETRAVIRINE] | 140 | –

System: not listed separately
Assay: Half life in dog microsomes
Format: ADME, Canis lupus familiaris, Microsome
Conditions: not given

Row | Compound | t1/2
28 | Cc1cc(C#N)cc(C(=O)c2c(C(C)C)c(=O)[nH]c(=O)n2Cc2cc(F)nc(F)c2)c1 | Stable

System: not listed separately
Assay: Half life in Beagle dog at 0.5 mg/kg, iv or 0.5 mg/kg, po
Format: ADME, organism-based, Canis lupus familiaris
Conditions: in vivo

Row | Compound | half-life [min]
29 | Cc1cc(C#N)cc(C(=O)c2c(C(C)C)c(=O)[nH]c(=O)n2Cc2cc(N)nc(F)c2)c1 | 198
30 | Cc1cc(C#N)cc(C(=O)c2c(C(C)C)c(=O)[nH]c(=O)n2Cc2cc(F)nc(F)c2)c1 | 294
31 | Cc1cc(C#N)cc(C(=O)c2c(C(C)C)c(=O)[nH]c(=O)n2Cc2ccnc(F)c2)c1 | 282

System: not listed separately
Assay: Volume of distribution at steady state in Beagle dog at 0.5 mg/kg, iv or 0.5 mg/kg, po
Format: ADME, organism-based, Canis lupus familiaris
Conditions: in vivo, read-out: Vdss

Row | Compound | Vd [L/kg]
32 | Cc1cc(C#N)cc(C(=O)c2c(C(C)C)c(=O)[nH]c(=O)n2Cc2cc(N)nc(F)c2)c1 | 1.8
33 | Cc1cc(C#N)cc(C(=O)c2c(C(C)C)c(=O)[nH]c(=O)n2Cc2cc(F)nc(F)c2)c1 | 1.94
34 | Cc1cc(C#N)cc(C(=O)c2c(C(C)C)c(=O)[nH]c(=O)n2Cc2ccnc(F)c2)c1 | 1.61

System: not listed separately
Assay: Oral bioavailability in Beagle dog at 4 mg/kg, po
Format: ADME, organism-based, Canis lupus familiaris
Conditions: in vivo

Row | Compound | bioavailability [%]
35 | Cc1cc(C#N)cc(C(=O)c2c(C(C)C)c(=O)[nH]c(=O)n2Cc2cc(N)nc(F)c2)c1 | 96

System: not listed separately
Assay: Oral bioavailability in Beagle dog at 0.5 mg/kg, po
Format: ADME, organism-based, Canis lupus familiaris
Conditions: in vivo

Row | Compound | bioavailability [%]
36 | Cc1cc(C#N)cc(C(=O)c2c(C(C)C)c(=O)[nH]c(=O)n2Cc2cc(F)nc(F)c2)c1 | 41.5

System: not listed separately
Assay: Oral bioavailability in Beagle dog at 2 mg/kg, po
Format: ADME, organism-based, Canis lupus familiaris
Conditions: in vivo

Row | Compound | bioavailability [%]
37 | Cc1cc(C#N)cc(C(=O)c2c(C(C)C)c(=O)[nH]c(=O)n2Cc2ccnc(F)c2)c1 | 80
